Experimental data from publication PMC8080067, “Tight binding of cytochrome b5 to cytochrome P450 17A1 is a critical feature of stimulation of C21 steroid lyase activity and androgen synthesis” (The Journal of Biological Chemistry, 2021).
Positions count from the first letter of the chain named. Where “and” joins values, the source holds several entries; their conditions need not be identical. Equal values may be shown once. Read-outs that look alike come from different tables or passages of the source.

Key:
Test in all cases: Substrate-binding spectral titration (type I, ΔA388-A423)
[1] = target: T1, P450 17A1 E305G variant (Homo sapiens, UniProt P05093, E305G)
T1 sequence (P05093 1-508 E305G): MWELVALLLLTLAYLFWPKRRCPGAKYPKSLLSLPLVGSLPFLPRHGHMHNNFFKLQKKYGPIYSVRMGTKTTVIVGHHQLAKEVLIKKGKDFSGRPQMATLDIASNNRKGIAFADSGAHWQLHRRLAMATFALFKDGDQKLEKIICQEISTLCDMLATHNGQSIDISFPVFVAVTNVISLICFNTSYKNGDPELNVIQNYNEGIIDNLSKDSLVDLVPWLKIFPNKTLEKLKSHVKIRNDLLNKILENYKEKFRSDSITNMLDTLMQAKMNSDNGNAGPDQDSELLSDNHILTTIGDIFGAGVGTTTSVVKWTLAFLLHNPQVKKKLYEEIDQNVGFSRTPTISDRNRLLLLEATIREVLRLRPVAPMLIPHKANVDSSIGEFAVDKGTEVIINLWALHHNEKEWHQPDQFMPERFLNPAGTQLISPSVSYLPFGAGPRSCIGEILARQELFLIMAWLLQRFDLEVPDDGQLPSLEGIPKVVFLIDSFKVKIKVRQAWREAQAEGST
Method: (§1) The purified enzymes were diluted in 100 mM potassium phosphate buffer (pH 7.4) and divided in two 1.0-ml glass cuvettes. Spectra (350–500 nm) were recorded using an OLIS-DW2 spectrophotometer (On-Line Instrument Systems) with subsequent additions of the substrate. Differences in the absorbance between the wavelength maximum and minimum were plotted versus the substrate concentration ([44]). Kd values were calculated using nonlinear regression analysis in GraphPad Prism software (GraphPad) and the quadratic equation: Y=B+A/2E[(Kd+E+X)−(Kd+E+X)^2−4EX], set in Prism as: Y = B + (A/2) ∗ (1/E) ∗ ((Kd + E + X)-sqrt((Kd + E + X)^ˆ2 - (4 ∗ E ∗ X))).
(§2) Figure S2. […] Increasing concentrations of substrates were added to the sample and reference cuvettes in each case.

[2] = target: T2, P450 17A1 R358Q variant (Homo sapiens, UniProt P05093, R358Q)
T2 sequence (P05093 1-508 R358Q): T1 sequence (P05093 1-508 E305G) with G305E, R358Q
Method: as §1, §2

[3] = target: T3, P450 17A1 R347H variant (Homo sapiens, UniProt P05093, R347H)
T3 sequence (P05093 1-508 R347H): T1 sequence (P05093 1-508 E305G) with G305E, R347H
Method: as §1, §2

[4] = target: T4, WT P450 17A1 (Homo sapiens, UniProt P05093)
T4 sequence (P05093 1-508): T1 sequence (P05093 1-508 E305G) with G305E
Method: as §1, §2

[5] = Kd of P450 17A1·substrate complex, WT, P450 1.0 µM, quadratic fit

| Kd [1] [nM] | Kd [2] [nM] | Kd [3] [nM] | Kd [4, 5] | SMILES | Kd [4] [nM] |
| --- | --- | --- | --- | --- | --- |
| 170 ± 80 | 260 ± 120 | 230 ± 100 | ~65 nM and 65 nM | CC(=O)[C@H]1CC[C@H]2[C@@H]3CCC4=CC(=O)CC[C@]4(C)[C@H]3CC[C@]12C [Progesterone] |  |
| 260 ± 80 | 150 ± 60 | 120 ± 50 | 140 ± 60 nM | CC(=O)C1CCC2C3CC=C4C[C@@H](O)CC[C@]4(C)C3CC[C@]12C (stereo partly drawn) [Pregnenolone] |  |

| SMILES | Kd [1] [nM] | Kd [2] [nM] | Kd [3] [nM] | Kd [4, 5] | Kd [4] [nM] |
| --- | --- | --- | --- | --- | --- |
| CC(=O)[C@@]1(O)CCC2C3CC=C4C[C@@H](O)CC[C@]4(C)C3CC[C@@]21C (stereo partly drawn) [17α-OH pregnenolone] | 410 ± 180 | 260 ± 120 | 220 ± 100 |  | 110 ± 50 |
